Measured values: patent US20230050653A1, “ROCK INHIBITOR AND PREPARATION METHOD THEREFOR AND USE THEREOF” (WUHAN LL SCIENCE AND TECHNOLOGY DEVELOPMENT CO., LTD., priority 2019, published 2023)

What was measured:
ROCK1 kinase = molecular target: T1, ROCK1 kinase (Homo sapiens, UniProt Q13464); assay: In vitro evaluation of ROCK1 kinase selectivity (HTRF KinEASE-STK time-resolved fluorometric assay); type: biochemical
T1 construct: purchased Invitrogen
Experimental: ROCK1 activity was detected using a 96-well (Cisbio) time-resolved fluorometric assay. The assay for ROCK1 was performed in the following assay buffer: 5 mM MgCl2 (Sigma), 1 mM DTT (Sigma) and 1× kinase buffer. The kinase buffer was used for dilution. 7.5 μL of ROCK1 kinase (Invitrogen) was added to a 96-well microplate to reach a final concentration of 0.4 ng/μL, and then 0.25 μL of test compound (DMSO content: 1%) was added. The mixture was incubated at room temperature for 0.5 h. To start the reaction, the kinase buffer was also used to mix ATP (Aladdin) and the substrate STK-substrate 2-biotin. 7.5 μL of the mixed solution was added to the microplate to reach final concentrations of 3.53 μM and 1 μM. The resulting mixture was incubated for 2 h at room temperature. […] was mixed with STK antibody-Cryptate, and then an appropriate volume of the mixture was mixed with an equal volume of streptavidin-XL665. 10 μL of the resulting mixture was added to stop the reaction. After further incubation for about 1 h, the microplate was read on a Molecular Devices SpectraMax i3x multifunctional microplate reader. The kinase buffer, the STK-substrate 2-biotin, the detection buffer, the STK antibody-Cryptate, and the streptavidin-XL665 were all from HTRF KinEASE-STK kit (Cisbio, 1000 tests, 61[…]).

ROCK2 kinase = molecular target: T2, ROCK2 kinase (Homo sapiens, UniProt O75116); assay: In vitro evaluation of ROCK2 kinase activity (HTRF KinEASE-STK time-resolved fluorometric assay); type: biochemical
T2 construct: purchased Invitrogen PV3759
Experimental: ROCK2 activity screening. ROCK2 activity was detected using a 96-well (Cisbio) time-resolved fluorometric assay. The assay for ROCK2 was performed in the following assay buffer: 5 mM MgCl2 (Sigma), 1 mM DTT (Sigma) and 1× kinase buffer. The kinase buffer was used for dilution. 7.5 μL of ROCK2 kinase (Invitrogen, PV3759) was added to a 96-well microplate to reach a final concentration of 0.4 ng/μL, and then 0.25 μL of test compound (DMSO content: 1% (volume fraction)) was added. The mixture was incubated at room temperature for 0.5 h. To start the reaction, the kinase buffer was used to mix ATP (Aladdin) and the substrate STK-substrate 2-biotin. 7.5 μL of the mixed solution was added to the microplate to reach final concentrations of 6.739 μM and 1 μM. The resulting mixture was incubated for 2 h at room temperature. 5 mL of detection buffer was mixed with STK antibody-Cryptate, and then an appropriate volume of the mixture was mixed with an equal volume of streptavidin-XL665. 10 μL of the resulting mixture was added to the microplate to stop the reaction. After further incubation for about 1 h, the microplate was read on a Molecular Devices SpectraMax i3x multifunctional microplate reader. The kinase buffer, the STK-substrate 2-biotin, the detection buffer, the STK antibody-Cryptate, and the streptavidin-XL665 were all from HTRF KinEASE-STK kit (Cisbio, 1000 tests, 61[…]).

T2 sequence (O75116 whole entry): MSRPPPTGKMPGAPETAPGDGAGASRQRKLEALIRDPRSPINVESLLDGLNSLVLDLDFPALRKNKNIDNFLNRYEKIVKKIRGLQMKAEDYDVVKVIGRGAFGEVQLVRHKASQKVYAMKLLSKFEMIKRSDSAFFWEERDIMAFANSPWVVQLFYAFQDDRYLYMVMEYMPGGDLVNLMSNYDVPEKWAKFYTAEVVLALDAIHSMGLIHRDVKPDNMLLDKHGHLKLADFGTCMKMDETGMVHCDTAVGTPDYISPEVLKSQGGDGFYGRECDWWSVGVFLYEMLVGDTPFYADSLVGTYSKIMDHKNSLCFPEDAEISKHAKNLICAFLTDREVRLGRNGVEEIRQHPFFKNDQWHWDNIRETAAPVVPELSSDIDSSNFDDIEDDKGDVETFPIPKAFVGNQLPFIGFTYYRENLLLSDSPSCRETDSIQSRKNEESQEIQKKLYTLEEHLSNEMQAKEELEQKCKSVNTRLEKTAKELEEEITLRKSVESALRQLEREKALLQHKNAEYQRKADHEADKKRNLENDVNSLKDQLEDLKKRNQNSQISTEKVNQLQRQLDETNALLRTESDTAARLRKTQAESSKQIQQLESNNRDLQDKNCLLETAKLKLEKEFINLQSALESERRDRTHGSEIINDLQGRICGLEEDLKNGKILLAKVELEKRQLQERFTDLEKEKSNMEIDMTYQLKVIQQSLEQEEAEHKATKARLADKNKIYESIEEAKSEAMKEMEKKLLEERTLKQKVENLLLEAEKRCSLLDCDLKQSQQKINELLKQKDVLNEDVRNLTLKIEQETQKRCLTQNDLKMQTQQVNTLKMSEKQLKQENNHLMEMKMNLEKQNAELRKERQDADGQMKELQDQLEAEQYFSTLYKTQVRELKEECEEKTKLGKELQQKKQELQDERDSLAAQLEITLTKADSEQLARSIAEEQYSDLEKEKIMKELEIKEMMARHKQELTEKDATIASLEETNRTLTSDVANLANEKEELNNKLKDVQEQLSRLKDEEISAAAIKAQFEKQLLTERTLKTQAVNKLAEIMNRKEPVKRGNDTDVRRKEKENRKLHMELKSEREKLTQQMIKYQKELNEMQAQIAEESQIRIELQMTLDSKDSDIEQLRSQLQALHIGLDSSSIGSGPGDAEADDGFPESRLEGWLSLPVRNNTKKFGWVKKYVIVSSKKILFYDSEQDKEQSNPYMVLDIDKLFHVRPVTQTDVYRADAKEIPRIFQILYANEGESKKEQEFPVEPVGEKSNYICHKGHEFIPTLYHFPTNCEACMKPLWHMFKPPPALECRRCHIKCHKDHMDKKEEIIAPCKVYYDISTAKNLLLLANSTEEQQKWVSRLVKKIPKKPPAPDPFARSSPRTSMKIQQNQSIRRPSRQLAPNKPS
T1 sequence (Q13464 whole entry): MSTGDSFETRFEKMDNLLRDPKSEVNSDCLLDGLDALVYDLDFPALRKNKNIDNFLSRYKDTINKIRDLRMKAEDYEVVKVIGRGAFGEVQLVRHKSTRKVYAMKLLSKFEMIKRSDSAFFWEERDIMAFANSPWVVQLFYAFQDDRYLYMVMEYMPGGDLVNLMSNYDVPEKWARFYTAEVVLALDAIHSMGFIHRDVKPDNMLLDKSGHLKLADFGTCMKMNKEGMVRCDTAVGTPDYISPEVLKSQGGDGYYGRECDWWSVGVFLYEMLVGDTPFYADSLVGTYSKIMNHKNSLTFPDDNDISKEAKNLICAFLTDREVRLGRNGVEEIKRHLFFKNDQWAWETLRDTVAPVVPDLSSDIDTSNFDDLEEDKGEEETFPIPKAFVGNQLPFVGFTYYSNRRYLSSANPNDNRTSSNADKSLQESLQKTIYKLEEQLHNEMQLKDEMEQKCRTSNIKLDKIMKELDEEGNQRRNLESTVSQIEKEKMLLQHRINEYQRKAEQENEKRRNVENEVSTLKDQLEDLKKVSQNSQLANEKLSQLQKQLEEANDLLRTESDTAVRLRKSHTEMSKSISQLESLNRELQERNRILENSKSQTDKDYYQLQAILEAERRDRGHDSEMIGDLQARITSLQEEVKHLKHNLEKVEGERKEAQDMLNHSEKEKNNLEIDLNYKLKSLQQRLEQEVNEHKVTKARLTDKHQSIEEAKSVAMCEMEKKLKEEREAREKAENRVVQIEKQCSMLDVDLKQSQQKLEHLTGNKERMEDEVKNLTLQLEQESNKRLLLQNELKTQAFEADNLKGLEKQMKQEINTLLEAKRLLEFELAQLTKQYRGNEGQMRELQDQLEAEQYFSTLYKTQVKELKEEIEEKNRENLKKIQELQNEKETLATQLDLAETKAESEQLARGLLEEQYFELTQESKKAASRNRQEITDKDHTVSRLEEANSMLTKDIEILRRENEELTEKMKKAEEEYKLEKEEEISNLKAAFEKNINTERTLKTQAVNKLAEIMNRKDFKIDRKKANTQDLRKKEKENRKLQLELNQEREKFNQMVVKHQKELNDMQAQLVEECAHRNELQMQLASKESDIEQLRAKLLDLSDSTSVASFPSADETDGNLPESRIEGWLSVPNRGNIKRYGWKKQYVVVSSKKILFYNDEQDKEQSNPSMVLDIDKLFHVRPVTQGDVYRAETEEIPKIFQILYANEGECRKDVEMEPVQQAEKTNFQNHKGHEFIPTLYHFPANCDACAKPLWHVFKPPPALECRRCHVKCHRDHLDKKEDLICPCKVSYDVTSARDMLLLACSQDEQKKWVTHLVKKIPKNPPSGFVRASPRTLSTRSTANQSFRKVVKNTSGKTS

Row | Compound | IC50 (ROCK1 kinase) [nM] | IC50 (ROCK2 kinase) [nM]
1 | O=C(NCC1CC1)c1cc(F)cc(CNC(=O)N2CCc3cc(-c4cn[nH]c4)c(F)cc32)c1 [Compound T378, N-(3-((cyclopropylmethyl)carbamoyl)-5-fluorobenzyl)-6-fluoro-5-(1H-pyrazol-4-yl)indoline-1-carboxamide] | ≤ 50 | ≤ 50
2 | O=C(NCc1cccc(F)c1)c1ncn2cc(-c3cn[nH]c3)ccc12 [Compound T368, N-(3-fluorobenzyl)-6-(1H-pyrazol-4-yl)imidazo[1,5-a]pyridine-1-carboxamide] | 500 to 5000 | 50 to 500
3 | O=C(COc1cc(F)cc([C@@H](CO)NC(=O)N2CCc3cc(-c4cn[nH]c4)c(F)cc32)c1)NC1CC(F)(F)C1 [Compound T369, (S)-N-(1-(3-(2-((3,3-difluorocyclobutyl)amino)-2-oxoethoxy)-5-fluorophenyl)-2-hydroxyethyl)-6-fluoro-5-(1H-pyrazol-4-yl)indoline-1-carboxamide] | ≤ 50 | ≤ 50
4 | CN(C)C[C@@H](NC(=O)N1CCc2cc(-c3c[nH]nc3F)c(F)cc21)c1cc(F)cc(F)c1 [Compound T366-S, (S)-N-(1-(3,5-difluorophenyl)-2-(dimethylamino)ethyl)-6-fluoro-5-(3-fluoro-1H-pyrazol-4-yl)indoline-1-carboxamide] | ≤ 50 | ≤ 50
5 | COc1cc(F)cc(CNC(=O)N2CCc3cc(-c4cn[nH]c4F)ccc32)c1 [Compound T342, 5-(5-fluoro-1H-pyrazol-4-yl)-N-(3-fluoro-5-methoxybenzyl)indoline-1-carboxamide] | ≤ 50 | ≤ 50
6 | COc1cc(F)cc(CNC(=O)c2ncc3cc(-c4cn[nH]c4)ccn23)c1 [Compound T234] | ≤ 50 | ≤ 50
7 | O=C(NCc1cc(F)cc(OC(F)(F)F)c1)N1CCc2cc(-c3cn[nH]c3)c(F)cc21 [Compound T349, 6-fluoro-N-(3-fluoro-5-(trifluoromethoxy)benzyl)-5-(1H-pyrazol-4-yl)indoline-1-carboxamide] | 500 to 5000 | 500 to 5000
8 | O=C(NCc1ccn[nH]1)N1CCc2cc(-c3cn[nH]c3)ccc21 [Compound T240] | 500 to 5000 | 500 to 5000
9 | COc1cc(F)cc(CN(CC2COC2)C(=O)N2CCc3cc(-c4cn[nH]c4)ccc32)c1 [Compound T212] | 500 to 5000 | 500 to 5000
10 | COc1cc(F)cc(CN(C(=O)N2CCc3cc(-c4cn[nH]c4)ccc3C2)C2CCOCC2)c1 [Compound T216] | 50 to 500 | 50 to 500
11 | COc1cc(F)cc(CN(C(=O)N2CCc3cc(-c4cn[nH]c4)ccc3C2)C2COC2)c1 [Compound T214] | 50 to 500 | 50 to 500
12 | COc1cc(F)cc(CNC(=O)N2CCc3cc(-c4cn[nH]c4)c(F)cc32)c1 [Compound T225, 6-fluoro-N-(3-fluoro-5-methoxybenzyl)-5-(1H-pyrazol-4-yl)indoline-1-carboxamide] | ≤ 50 | ≤ 50
13 | COc1cc(F)cc([C@@H](CO)NC(=O)N2CCc3cc(-c4cn[nH]c4)c(F)cc32)c1 [Compound T377, (S)-6-fluoro-N-(1-(3-fluoro-5-methoxyphenyl)-2-hydroxyethyl)-5-(1H-pyrazol-4-yl)indoline-1-carboxamide] | ≤ 50 | ≤ 50
14 | CN(C)C[C@H](NC(=O)N1CCc2cc(-c3c[nH]nc3F)c(F)cc21)c1cc(F)cc(F)c1 [Compound T366-R, (R)-N-(1-(3,5-difluorophenyl)-2-(dimethylamino)ethyl)-6-fluoro-5-(3-fluoro-1H-pyrazol-4-yl)indoline-1-carboxamide] | 500 to 5000 | 50 to 500
15 | COc1cc(F)cc(C(CN)NC(=O)N2CCc3cc(-c4cn[nH]c4)c(F)cc32)c1 (stereo not shown) [Compound T371, N-(2-amino-1-(3-fluoro-5-methoxyphenyl)ethyl)-6-fluoro-5-(1H-pyrazol-4-yl)indoline-1-carboxamide] | ≤ 50 | ≤ 50
16 | COc1cc(F)cc(CNC(=O)N2CCc3cc(-c4cn[nH]c4)c(Cl)cc32)c1 [Compound T222, 6-chloro-N-(3-fluoro-5-methoxybenzyl)-5-(1H-pyrazol-4-yl)indoline-1-carboxamide] | ≤ 50 | ≤ 50
17 | O=C(NCc1ccc2[nH]cnc2c1)N1CCc2cc(-c3cn[nH]c3)ccc21 [Compound T247] | 50 to 500 | 50 to 500
18 | O=C(NC(c1ccccc1)c1ccccc1)N1CCc2cc(-c3cn[nH]c3)ccc21 [Compound T249] | 500 to 5000 | 500 to 5000
19 | COc1cc(F)cc(CN(C(=O)N2CCc3cc(-c4cn[nH]c4)ccc32)C2CCOCC2)c1 [Compound T215] | 500 to 5000 | 500 to 5000

Second part, the compound after the results:

Row | IC50 (ROCK1 kinase) [nM] | IC50 (ROCK2 kinase) [nM] | Compound
20 | 50 to 500 | 500 to 5000 | COc1cc(F)cc(CNC(=O)N2CCc3cc(-c4cn[nH]c4)cnc32)c1 [Compound T218, N-(3-fluoro-5-methoxybenzyl)-5-(1H-pyrazol-4-yl)-2,3-dihydro-1H-pyrrolo(2,3-b)pyridine-1-carboxamide]
21 | 50 to 500 | 50 to 500 | COc1cc(F)cc(CNC(=O)N2CCc3cc(-c4c[nH]nn4)ccc32)c1 [Compound T217, N-(3-fluoro-5-methoxybenzyl)-5-(1H-1,2,3-triazol-4-yl)indoline-1-carboxamide]
22 | 50 to 500 | ≤ 50 | COc1cc(F)cc([C@@H](CO)NC(=O)N2CCc3cc(-c4c[nH]nc4N)c(F)cc32)c1 [Compound T365, (S′)-5-(3-amino-1H-pyrazol-4-yl)-6-fluoro-N-(1-(3-fluoro-5-methoxyphenyl)-2-hydroxyethyl)indoline-1-carboxamide]
23 | 50 to 500 | ≤ 50 | COc1cc(F)cc(C(CN(C)C)NC(=O)N2CCc3cc(-c4c[nH]nc4F)c(F)cc32)c1 (racemic) [Compound T388, (+/−)N-(2-(dimethylamino)-1-(3-fluoro-5-methoxyphenyl)ethyl)-6-fluoro-5-(3-fluoro-1H-pyrazol-4-yl)indoline-1-carboxamide]
24 | ≤ 50 | ≤ 50 | COc1cc(F)cc(CNC(=O)N2CCCc3nc(-c4cn[nH]c4)sc32)c1 [Compound T229]
25 | 500 to 5000 | 50 to 500 | CN1CC(COc2cc(F)cc(C(CO)NC(=O)N3CCc4cc(-c5cn[nH]c5)c(F)cc43)c2)C1 (stereo not shown) [Compound T343, 6-fluoro-N-(1-(3-fluoro-5-((1-methylazetidin-3-yl)methoxy)phenyl)-2-hydroxyethyl)-5-(1H-pyrazol-4-yl)indoline-1-carboxamide]
26 | 50 to 500 | ≤ 50 | O=C(N[C@H](CN1CC(F)(F)C1)c1cc(F)cc(F)c1)N1CCc2cc(-c3c[nH]nc3F)c(F)cc21 [Compound T340]
27 | ≤ 50 | ≤ 50 | COc1cc(F)cc(CNC(=O)N2CCc3nc(-c4cn[nH]c4)ncc32)c1 [Compound T231]
28 | 500 to 5000 | 50 to 500 | CN(C)Cc1cc(F)cc(CNC(=O)c2ncn3cc(-c4cn[nH]c4)ccc23)c1 [Compound T360, N-(3-((dimethylamino)methyl)-5-fluorobenzyl)-6-(1H-pyrazol-4-yl)imidazo[1,5-a]pyridine-1-carboxamide]
29 | 50 to 500 | 50 to 500 | COc1cc(F)cc(CNC(=O)N2CCc3nc(-c4cn[nH]c4)ccc32)c1 [Compound T220, N-(3-fluoro-5-methoxybenzyl)-5-(1H-pyrazol-4-yl)-2,3-dihydro-1H-pyrrolo(3,2-b)pyridine-1-carboxamide]
